2 compounds from patent publication US7285557B2, “Pyrimidinones as melanin concentrating hormone receptor 1” (SmithKline Beecham P.L.C., priority 2001, dated 2007) can be followed below.

In this experiment the target is T1, human melanin-concentrating hormone one receptor (Homo sapiens, UniProt Q99705).
T1 construct: expressed in transfected cells; host or cells: CHO (CHO-K1) cells stably expressing an elkgal4-luc+ reporter gene
In words: Functional antagonist assay of MCHR1 (elkgal4-luc+ luciferase reporter gene in CHO cells, inhibition of MCH EC80 response). Format: cell-based. Particulars: MCH1R-elkgal4-luc+ CHO cells, luciferase readout, read-out: MCHR1 pIC50 (converted). A general note: A reporter such as luciferase makes a cellular process visible.

T1 sequence (Q99705 whole entry, the tested form may be a part): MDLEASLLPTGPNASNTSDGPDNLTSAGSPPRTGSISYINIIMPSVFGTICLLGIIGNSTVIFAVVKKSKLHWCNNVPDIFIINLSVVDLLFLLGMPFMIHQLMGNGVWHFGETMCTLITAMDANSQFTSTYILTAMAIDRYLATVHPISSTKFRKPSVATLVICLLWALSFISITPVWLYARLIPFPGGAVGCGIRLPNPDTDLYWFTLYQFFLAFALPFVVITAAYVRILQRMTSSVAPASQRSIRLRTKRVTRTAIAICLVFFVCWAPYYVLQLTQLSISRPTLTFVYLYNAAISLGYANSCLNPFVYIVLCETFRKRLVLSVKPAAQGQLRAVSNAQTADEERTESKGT
Description: Chinese hamster ovary (CHO-K1) cells were obtained from the American Type Culture Collection (Rockville, Md.).
CHO cells, stably expressing an elkgal4-luc^+ reporter gene (host) were transfected by electroporation with the human melanin-concentrating hormone one receptor. A stable clone was selected using G418 for functional antagonist assays. MCH1R-elkgal4-luc^+ CHO cells were propagated in complete medium (DMEM/F12, 5% FBS, 2 mM I-glutamine) in T225 flasks. Forty-eight hours prior to assay, cells were harvested with 2 mL of 0.05% trypsin, washed with complete medium and plated at a concentration of 10,000 cells/well in complete medium in black 96-well plates. Eighteen hours prior to the assay, the medium was removed from the cells by aspiration and replaced with 90 μl/well of serum-free DMEM/F12. […] Plates were sealed and subjected to dark adaptation at room temperature for 10 minutes before luciferase activity was quantitated on a TopCount™ microplate scintillation counter (Packard) using 3 seconds/well count time. The ability of the antagonist to inhibit the MCH EC80 response was quantified by non-linear regression analysis using a curve-fitting program based in Microsoft ExCel. Specificity of the MCHR1 response was determined using the same protocol by measuring the ability of said antagonists to inhibit an EC80 thrombin response (endogenous) in the host cells.

On to `COc1cc(-n2cnc3cc(-c4ccccc4)ccc3c2=O)ccc1OCCN1CCCCC1` [Example H1, 3-{3-methoxy-4-[2-(1-piperidinyl)ethoxy]phenyl}-7-phenyl-4(3H)-quinazolinone], for which the IC50 is 79.4 nM.

Take `COc1cc(-n2cnc3cc(-c4ccc(C(F)(F)F)cc4)ccc3c2=O)ccc1OCCN1CCCC1` [Example J1, 3-{3-methoxy-4-[2-(1-pyrrolidinyl)ethoxy]phenyl}-7-[4-(trifluoromethyl)phenyl]-4(3H)-quinazolinone]: the IC50 is 63.1 nM.
